Literature values in article PMC9299415 (Molecular Neurobiology, 2022).

Experiments:
SARS-CoV-2 = details: rhesus macaque model, ref [18]

Oc1ccc2[nH]ccc2c1 [5-HI, 5-hydroxyindole]
potentiation efficacy compared with PNU-120596 (α7 nAChR): lower efficacy than PNU-120596 | recovery of receptors from desensitization (α7 nAChR): does not produce significant recovery of receptors from desensitization

CCN1C[C@]2(COC(=O)c3ccccc3N3C(=O)C[C@H](C)C3=O)CC[C@H](OC)[C@@]34[C@@H]5C[C@H]6[C@H](OC)[C@@H]5[C@](O)(C[C@@H]6OC)[C@@](O)([C@@H](OC)[C@H]23)[C@@H]14 [MLA, methyllycaconitine]
agonist/antagonist type at α7 (α7 nAChR): reversible competitive α7 antagonist

COc1cc(OC)c(NC(=O)Nc2cc(C)on2)cc1Cl [PNU-120596, N-(5-Chloro-2,4-dimethoxyphenyl)-N’-(5-methyl-3-isoxazolyl)-urea]
channel activation by PNU-120596 by itself (α7 nAChR): cannot induce channel activation

c1cnc2cc3c(cc2n1)[C@@H]1CNC[C@H]3C1 [varenicline]
infectivity and disease progression (SARS-CoV-2): reduces infectivity and disease progression | agonist/antagonist type at α7 (α7 nAChR): full agonist
